Data as given in ChEMBL document CHEMBL1135401, “Pharmacophore mapping of a series of 2,4-diamino-5-deazapteridine inhibitors of Mycobacterium avium complex dihydrofolate reductase” (J Med Chem, 2002).

Tests used:
[1] = biological target: T1, Dihydrofolate reductase (Homo sapiens, UniProt P00374); experiment: Antimycobacterial activity against human dihydrofolate reductase (hDHFR)
T1 sequence (P00374 whole entry): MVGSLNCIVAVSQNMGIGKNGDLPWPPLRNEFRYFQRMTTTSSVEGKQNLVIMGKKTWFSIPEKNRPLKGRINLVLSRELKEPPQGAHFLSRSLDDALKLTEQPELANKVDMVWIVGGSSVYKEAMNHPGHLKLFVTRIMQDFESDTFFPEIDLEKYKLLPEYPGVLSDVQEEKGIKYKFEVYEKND

[2] = biological target: T2, Dihydrofolate reductase (Mycobacterium avium, UniProt O30463); experiment: Antimycobacterial activity against Mycobacterium avium complex dihydrofolate reductase (MAC DHFR)
T2 sequence (O30463 whole entry): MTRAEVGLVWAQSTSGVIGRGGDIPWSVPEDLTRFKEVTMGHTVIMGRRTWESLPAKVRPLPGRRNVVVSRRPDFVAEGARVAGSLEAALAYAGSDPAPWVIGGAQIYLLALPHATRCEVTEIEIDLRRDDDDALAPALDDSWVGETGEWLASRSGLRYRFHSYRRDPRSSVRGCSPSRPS

[3] = biological target: T1, Dihydrofolate reductase; experiment: Antimycobacterial activity against Human dihydrofolatereductase (hDHFR)
[4] = biological target: T1, Dihydrofolate reductase

**Q.** With `COc1ccc(C(F)(F)F)cc1N(C)Cc1cnc2nc(N)nc(N)c2c1C` as the compound, how does the IC50 [1] read?
**A.** The IC50 was 36 nM.

**Q.** What about the IC50 [2] of the same compound?
**A.** Its IC50 is 1.2 nM.

**Q.** `Cc1c(CN(C)c2cccc3c2CCCC3)cnc2nc(N)nc(N)c12` was tested. Which IC50 [1] did it give?
**A.** The IC50 was 710 nM.

**Q.** And the IC50 [2]?
**A.** The IC50 was 1.9 nM.

**Q.** Which results are given for `COc1ccc(SCc2cnc3nc(N)nc(N)c3c2C)cc1OC`?
**A.** IC50 [1]: 440 nM; IC50 [2]: 1.5 nM

**Q.** What does the source list for `Cc1cccc(SCc2cnc3nc(N)nc(N)c3c2C)c1`?
**A.** IC50 [1]: 850 nM; IC50 [2]: 16 nM

**Q.** For `COc1cc(NCc2cnc3nc(N)nc(N)c3c2)cc(OC)c1OC`, which IC50 [1] is on record?
**A.** The IC50 was 3900 nM.

**Q.** And the IC50 [2]?
**A.** The IC50 was 240 nM.

**Q.** How did the IC50 [1] turn out when `Cc1ccc(C)c(NCc2cnc3nc(N)nc(N)c3c2C)c1` was run?
**A.** The IC50 was 57 nM.

**Q.** What about the IC50 [2] of the same compound?
**A.** Its IC50 is 0.92 nM.

**Q.** Which results are given for `Cc1c(CNc2ccc(Cl)cc2)cnc2nc(N)nc(N)c12`?
**A.** IC50 [1]: 27 nM; IC50 [2]: 0.84 nM

**Q.** Which results are given for `Nc1nc(N)c2cc(CNc3ccc(Cl)cc3)cnc2n1`?
**A.** IC50 [1]: 670 nM; IC50 [2]: 73 nM

**Q.** With `COc1cc(NCc2cnc3nc(N)nc(N)c3c2C)cc(OC)c1OC` as the compound, how does the IC50 [1] read?
**A.** The IC50 was 4.7 nM.

**Q.** And the IC50 [2]?
**A.** The IC50 was 0.82 nM.

**Q.** For `COc1cc(NCc2cnc3nc(N)nc(N)c3c2C)cc(OC)c1`, which IC50 [2] is on record?
**A.** Its IC50 is 20 nM.

**Q.** What about the IC50 [3] of the same compound?
**A.** The IC50 was 15 nM.

**Q.** With `Cc1c(CSc2cccc3ccccc23)cnc2nc(N)nc(N)c12` as the compound, how does the IC50 [1] read?
**A.** Its IC50 is 440 nM.

**Q.** And the IC50 [2]?
**A.** The IC50 was 4.6 nM.

**Q.** For `COc1ccc(C)c(NCc2cnc3nc(N)nc(N)c3c2C)c1`, which IC50 [1] is on record?
**A.** Its IC50 is 150 nM.

**Q.** What about the IC50 [2] of the same compound?
**A.** The IC50 was 0.4 nM.

**Q.** Which results are given for `CCOc1ccc(OCC)c(N(C)Cc2cnc3nc(N)nc(N)c3c2C)c1`?
**A.** IC50 [1]: 1000 nM; IC50 [2]: 1.4 nM

**Q.** Which IC50 [1] does the source give for `Cc1c(CNc2cccc3ccccc23)cnc2nc(N)nc(N)c12` here?
**A.** The IC50 was 4.3 nM.

**Q.** And the IC50 [2]?
**A.** Its IC50 is 0.81 nM.

**Q.** What about the IC50 [4] of the same compound?
**A.** The IC50 was under 100 nM.

**Q.** What does the source list for `COc1cc(NCc2cnc3nc(N)nc(N)c3c2C)cc(C(F)(F)F)c1`?
**A.** IC50 [1]: 5.5 nM; IC50 [2]: 0.93 nM

**Q.** Which results are given for `Cc1c(CSc2cccc(Cl)c2)cnc2nc(N)nc(N)c12`?
**A.** IC50 [1]: 420 nM; IC50 [2]: 3.9 nM

**Q.** Which results are given for `COc1cccc(SCc2cnc3nc(N)nc(N)c3c2C)c1`?
**A.** IC50 [1]: 500 nM; IC50 [2]: 2.7 nM

**Q.** For `CCOc1ccc(OCC)c(NCc2cnc3nc(N)nc(N)c3c2C)c1`, which IC50 [1] is on record?
**A.** Its IC50 is 2300 nM.

**Q.** What does the source list for `COc1ccc(C)cc1NCc1cnc2nc(N)nc(N)c2c1C`?
**A.** IC50 [1]: 300 nM; IC50 [2]: 0.86 nM

**Q.** For `COc1ccc(C(F)(F)F)cc1NCc1cnc2nc(N)nc(N)c2c1C`, which IC50 [1] is on record?
**A.** The IC50 was 2.7 nM.

**Q.** And the IC50 [2]?
**A.** The IC50 was 0.66 nM.

**Q.** What does the source list for `Cc1c(CNc2cccc3c2CCCC3)cnc2nc(N)nc(N)c12`?
**A.** IC50 [1]: 142 nM; IC50 [2]: 0.93 nM

**Q.** With `COc1ccc(NCc2cnc3nc(N)nc(N)c3c2C)cc1OC` as the compound, how does the IC50 [1] read?
**A.** Its IC50 is 5.1 nM.

**Q.** And the IC50 [2]?
**A.** Its IC50 is 0.7 nM.

**Q.** What does the source list for `COc1ccc(OC)c(CCc2cnc3nc(N)nc(N)c3c2C)c1`?
**A.** IC50 [1]: 2700 nM; IC50 [2]: 47 nM

**Q.** Which results are given for `COc1cc(Cl)c(C)cc1NCc1cnc2nc(N)nc(N)c2c1C`?
**A.** IC50 [1]: 10 nM; IC50 [2]: 0.94 nM

**Q.** Which IC50 [1] does the source give for `Cc1c(CNc2ccc(OC(F)F)cc2)cnc2nc(N)nc(N)c12` here?
**A.** The IC50 was 20 nM.

**Q.** What about the IC50 [2] of the same compound?
**A.** The IC50 was 1.1 nM.

**Q.** For `COCc1c(CNc2ccc(Cl)cc2)cnc2nc(N)nc(N)c12`, which IC50 [1] is on record?
**A.** The IC50 was 2600 nM.

**Q.** How did the IC50 [1] turn out when `Cc1c(CNc2cccc3cnccc23)cnc2nc(N)nc(N)c12` was run?
**A.** The IC50 was 4 nM.

**Q.** What about the IC50 [2] of the same compound?
**A.** The IC50 was 0.87 nM.

**Q.** Which results are given for `Cc1ccc(F)cc1NCc1cnc2nc(N)nc(N)c2c1C`?
**A.** IC50 [1]: 19 nM; IC50 [2]: 0.85 nM

**Q.** How did the IC50 [1] turn out when `Cc1c(CNc2ccccc2OC(F)F)cnc2nc(N)nc(N)c12` was run?
**A.** The IC50 was 277 nM.

**Q.** And the IC50 [2]?
**A.** Its IC50 is 0.87 nM.

**Q.** How did the IC50 [1] turn out when `Cc1ccc(NCc2cnc3nc(N)nc(N)c3c2C)cc1Cl` was run?
**A.** The IC50 was 6.7 nM.

**Q.** And the IC50 [2]?
**A.** Its IC50 is 0.9 nM.

**Q.** Which IC50 [1] does the source give for `Cc1ccc(F)c(NCc2cnc3nc(N)nc(N)c3c2C)c1` here?
**A.** Its IC50 is 250 nM.

**Q.** And the IC50 [2]?
**A.** The IC50 was 1.1 nM.

**Q.** Which results are given for `COc1ccc(NCc2cnc3nc(N)nc(N)c3c2C)cc1F`?
**A.** IC50 [1]: 14 nM; IC50 [2]: 0.91 nM

**Q.** Which results are given for `CCOc1ccc(NCc2cnc3nc(N)nc(N)c3c2C)cc1OC`?
**A.** IC50 [1]: 18 nM; IC50 [2]: 1.1 nM

**Q.** `CCc1c(CNc2cc(C)ccc2OC)cnc2nc(N)nc(N)c12` was tested. Which IC50 [1] did it give?
**A.** Its IC50 is 370 nM.

**Q.** What about the IC50 [2] of the same compound?
**A.** Its IC50 is 3.1 nM.

**Q.** Which IC50 [1] does the source give for `Cc1c(CNc2cc(C(F)(F)F)ccc2F)cnc2nc(N)nc(N)c12` here?
**A.** The IC50 was 4.1 nM.

**Q.** And the IC50 [2]?
**A.** Its IC50 is 0.86 nM.

**Q.** `Cc1c(CNc2ccc3ccc4cccc5ccc2c3c45)cnc2nc(N)nc(N)c12` was tested. Which IC50 [1] did it give?
**A.** The IC50 was 3.8 nM.

**Q.** What about the IC50 [2] of the same compound?
**A.** The IC50 was 0.88 nM.

**Q.** For `Cc1c(CNc2cccc(Cl)c2)cnc2nc(N)nc(N)c12`, which IC50 [1] is on record?
**A.** The IC50 was 17 nM.

**Q.** What about the IC50 [2] of the same compound?
**A.** Its IC50 is 0.82 nM.

**Q.** Which results are given for `Cc1c(CNc2ccccc2Cl)cnc2nc(N)nc(N)c12`?
**A.** IC50 [1]: 120 nM; IC50 [2]: 0.91 nM

**Q.** Which results are given for `Cc1c(CNc2ccc(Cl)c(Cl)c2)cnc2nc(N)nc(N)c12`?
**A.** IC50 [1]: 5 nM; IC50 [2]: 0.92 nM
